Data on eleven molecules can be found in patent US7262202B2, “Inhibitors of cyclin dependent kinases as anti-cancer agent” (Cyclacel Limited, priority 2001, dated 2007).

Structures are written as SMILES. Like-named read-outs stand apart in the source and are kept apart here. A value given as a limit tells only on which side of the number the result lay.

The target of one series is T1, CDK2/cyclin E (Homo sapiens, UniProt P24941).
T1 construct: His; made in house; host or cells: Sf9 insect cells (baculovirus)
The series is described as follows: CDK2/Cyclin E kinase assay (GST-Rb phosphorylation, radiolabelled ATP).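 Note: enzyme was His-tagged CDK2/cyclin E co-expressed in baculovirus-infected Sf9 insect cells and purified over a metal-chelate column.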 The format is biochemical.

A further series relates to human tumour cell lines. The series is described as follows: cell-based anti-proliferative assays. An excerpt: These assays, including methods for their performance, are described in more detail in Example 3. Using such cell line and enzymes assays it may be determined whether a compound is anti-proliferative in the context of the present invention.
(§1) Selected compounds from the above examples were subjected to a standard cellular proliferation assay using a range of different human tumour cell lines. Standard 72-h MTT (thiazolyl blue; 3-[4,5-dimethylthiazol-2-yl]-2,5-diphenyltetrazolium bromide) assays were performed (Haselsberger, K.; Peterson, D. C.; Thomas, D. G.; Darling, J. L. Anti Cancer Drugs 1996, 7, 331–8; Loveland, B. E.; Johns, T. G.; Mackay, I. R.; Vaillant, F.; Wang, Z. X.; Hertzog, P. J. Biochemistry International 1992, 27, 501–10). Human tumour cell lines were obtained from the ATCC (American Type Culture Collection, 10801 University Boulevard, Manessas, Va. 20110-2209, USA).

The subject of the next series is Saos-2. The series is described as follows: 72-h MTT cellular proliferation assay, Saos-2. The note with it: human tumour cell line Saos-2, 72-h MTT; read-out: Cytotoxicity (IC50, μM) Saos-2. In kind it is cell-based. An excerpt: (§2) Selected compounds from the above examples were subjected to a standard cellular proliferation assay using a range of different human tumour cell lines.
A general note: Tetrazolium dyes change colour on reduction, which living cells bring about.

For the next series, the system named is HT29. Description: 72-h MTT cellular proliferation assay, HT29. The note with it: HT-29; human tumour cell line HT29, 72-h MTT; read-out: Cytotoxicity (IC50, μM) HT29. The format is cell-based.
Source text: as §2

The subject of a further series is A549. Description: 72-h MTT cellular proliferation assay, A549. The format is cell-based. The note with it: human tumour cell line A549, 72-h MTT; read-out: Cytotoxicity (IC50, μM) A549.
Source text: as §2

Series [1] is described as follows: 72-h MTT cellular proliferation assay, W138. The note with it: human, W138 cells (non-transformed); non-transformed cell line W138, 72-h MTT; read-out: Cytotoxicity (IC50, μM) W138. In kind it is cell-based. As for the experimental part: as §1
Series [2] is described as follows: 72-h MTT cellular proliferation assay, IMR90. In kind it is cell-based. The note with it: human, IMR90 cells (non-transformed); non-transformed cell line IMR90, 72-h MTT; read-out: Cytotoxicity (IC50, μM) IMR90. As for the experimental part:
as §1

Series [3] in a line: 72-h MTT cellular proliferation assay, Hs27. The format is cell-based. The following applies: human, Hs27 cells (non-transformed); non-transformed cell line Hs27, 72-h MTT; read-out: Cytotoxicity (IC50, μM) Hs27. As for the experimental part: as §1
In the next series the test system is MCF7. The series is described as follows: 72-h MTT cellular proliferation assay, MCF7. In kind it is cell-based. The following applies: human tumour cell line MCF7, 72-h MTT; read-out: Cytotoxicity (IC50, μM) MCF7.
Source text: as §2

In the next series the test system is HeLa. The series is described as follows: 72-h MTT cellular proliferation assay, HeLa. The format is cell-based. The note with it: human tumour cell line HeLa, read-out: Cytotoxicity (IC50, μM) HeLa.
Source text: as §2

The mark [4] stands for this setting: bound stated, (±0.05), read-out: IC50 for cdk2/cyclinE.

The melting point is the temperature of the solid-liquid transition. With `Cc1c[nH]c(C)c1-c1ccnc(Nc2ccc(C(F)(F)F)cc2)n1` [Compound 12, [4-(2,4-Dimethyl-1H-pyrrol-3-yl)-pyrimidin-2-yl]-(4-trifluoromethyl-phenyl)-amine], the melting point is 165.6 to 167.9 °C. The IC50 at CDK2/cyclin E (setting [4]) is under 1 µM. Also, the IC50 on CDK2/cyclin E (read-out: CDK2/cyclin E (IC50)) worked out at 0.9 µM. Also, in the series on human tumour cell lines, the “anti-proliferative activity in cell-based assays” value (from here on “anti-proliferative activity”) was “particularly effective anti-proliferative agents”. The IC50 in the series on Saos-2 is 17 µM. For the same molecule, in the series on HT29, the IC50 is 3.1 µM. Further, in the series on A549, the IC50 came out at 15 µM.
In the case of `Cc1[nH]c(C#N)c(C)c1-c1ccnc(Nc2ccc(F)cc2)n1` [Compound 32, 4-[2-(4-Fluoro-phenylamino)-pyrimidin-4-yl]-3,5-dimethyl-1H-pyrrole-2-carbonitrile], the figures for the IC50 at 72 h in series [1], in series [2] and in [3] were 9.6 µM, 20.8 µM and 15.1 µM, respectively. Also, the IC50 on CDK2/cyclin E (setting [4]) was under 0.5 µM. In the series on human tumour cell lines, the “anti-proliferative activity” value is “particularly effective anti-proliferative agents”.
Turning to `Cc1[nH]c(C#N)c(C)c1-c1ccnc(Nc2ccc(C(F)(F)F)cc2)n1` [Compound 34, 3,5-Dimethyl-4-[2-(4-trifluoromethyl-phenylamino)-pyrimidin-4-yl]-H-pyrrole-2-carbonitrile], the melting point is 195.6 to 198.9 °C. Moreover, the IC50 at CDK2/cyclin E (setting [4]) is under 0.5 µM. Further, the “anti-proliferative activity” value with human tumour cell lines is given as “particularly effective anti-proliferative agents”. For the same molecule, the IC50 in the series on Saos-2 was determined as 3.4 µM. Also, the IC50 in the series with HT29 amounted to 0.95 µM. Besides, the IC50 in the series with A549 turned out to be 3.64 µM.
Molecule `Cc1[nH]c(C#N)c(C)c1-c1ccnc(Nc2ccc(I)cc2)n1` [Compound 35, 4-[2-(4-Iodo-phenylamino)-pyrimidin-4-yl]-3,5-dimethyl-1H-pyrrole-2-carbonitrile] came in with a melting point of 178.3 to 181.2 °C. In addition, in the series with MCF7, the IC50 is 0.45 µM. Also, the IC50 at 72 h in series [1] turned out to be 21.3 µM. The IC50 in the series on HeLa was determined as 0.09 µM. Further, the IC50 at CDK2/cyclin E (setting [4]) was under 0.5 µM. Moreover, the IC50 at 72 h in [2] was 37.3 µM. For the same molecule, the “anti-proliferative activity” value with human tumour cell lines is on record as “particularly effective anti-proliferative agents”. Besides, the IC50 with Saos-2 was found to be 0.75 µM. Besides, the IC50 in the series on HT29 is 0.11 µM. Besides, in the series with A549, the IC50 is 0.51 µM. Moreover, the IC50 at 72 h in [3] was 35.1 µM.
`Cc1ccc(Nc2nccc(-c3c(C)[nH]c(C#N)c3C)n2)cc1I` [Compound 38, 4-[2-(3-Iodo-4-methyl-phenylamino)-pyrimidin-4-yl]-3,5-dimethyl-1H-pyrrole-2-carbonitrile] returned a melting point of 189.5 to 191.7 °C. For the same molecule, the IC50 on CDK2/cyclin E (setting [4]) was under 1 µM. For the same molecule, the “anti-proliferative activity” value with human tumour cell lines is listed as “particularly effective anti-proliferative agents”. Also, the IC50 in the series with Saos-2 came out at 3.12 µM. In addition, the IC50 in the series with HT29 was determined as 0.72 µM. Besides, the IC50 in the series on A549 is 3.6 µM.
Consider `Cc1cc(Nc2nccc(-c3c(C)[nH]c(C#N)c3C)n2)ccc1Cl` [Compound 39, 4-[2-(4-Chloro-3-methyl-phenylamino)-pyrimidin-4-yl]-3,5-dimethyl-1H-pyrrole-2-carbonitrile], for which the melting point lay within 194.2 to 197.9 °C. Besides, at CDK2/cyclin E (setting [4]), the IC50 is under 1 µM. Further, the IC50 at CDK2/cyclin E (read-out: CDK2/cyclin E (IC50)) was determined as 1.02 µM. Besides, in the series on human tumour cell lines, the “anti-proliferative activity” value is “particularly effective anti-proliferative agents”. In addition, the IC50 in the series on Saos-2 was found to be 5.88 µM. The IC50 in the series on HT29 stood at 3.27 µM. Moreover, the IC50 in the series on A549 came to 4.37 µM.
Regarding `Cc1ccc(Nc2nccc(-c3c(C)[nH]c(C#N)c3C)n2)cc1F` [Compound 42, 4-[2-(3-Fluoro-4-methyl-phenylamino)-pyrimidin-4-yl]-3,5-dimethyl-1H-pyrrole-2-carbonitrile], the melting point was 177.7 to 179.9 °C. Also, at CDK2/cyclin E (setting [4]), the IC50 was under 1 µM. Further, the “anti-proliferative activity” value in the series with human tumour cell lines is “particularly effective anti-proliferative agents”. For the same molecule, the IC50 in the series with Saos-2 stood at 2.23 µM. Moreover, in the series on HT29, the IC50 was found to be 0.28 µM. Further, in the series with A549, the IC50 is 1.49 µM.
In turn, `Cc1[nH]c(C#N)c(C)c1-c1ccnc(Nc2ccc(N(C)C)cc2)n1` [Compound 43, 4-[2-(4-Dimethylamino-phenylamino)-pyrimidin-4-yl]-3,5-dimethyl-1H-pyrrole-2-carbonitrile] came in with a melting point of 190.6 to 193.7 °C. In addition, the IC50 at CDK2/cyclin E (setting [4]) was under 1 µM. Moreover, the “anti-proliferative activity” value in the series on human tumour cell lines is reported as “particularly effective anti-proliferative agents”. The IC50 with Saos-2 was 1.5 µM. The IC50 in the series on HT29 was 0.17 µM. The IC50 in the series on A549 stood at 1.41 µM.
`Cc1[nH]c([N+](=O)[O-])c(C)c1-c1ccnc(Nc2ccc(N(C)C)cc2)n1` [Compound 48, N-[4-(2,4-Dimethyl-5-nitro-1H-pyrrol-3-yl)-pyrimidin-2-yl]-N′,N′-dimethyl-benzene-1,4-diamine]: the melting point lay within 265 to 268 °C. The IC50 at CDK2/cyclin E (setting [4]) was under 1 µM. Further, the “anti-proliferative activity” value with human tumour cell lines was “particularly effective anti-proliferative agents”. Further, the IC50 with Saos-2 is 2.65 µM. For the same molecule, the IC50 with HT29 is 0.61 µM. Besides, the IC50 in the series on A549 was 3.05 µM.
The molecule `Cc1[nH]c(Br)c(C)c1-c1ccnc(Nc2cccc([N+](=O)[O-])c2)n1` [Compound 51, [4-(5-Bromo-2,4-dimethyl-1H-pyrrol-3-yl)-pyrimidin-2-yl]-(3-nitro-phenyl)-amine] gave a melting point of 198.1 to 203 °C. In addition, the IC50 at CDK2/cyclin E (setting [4]) was under 0.5 µM. The “anti-proliferative activity” value in the series on human tumour cell lines is reported as “particularly effective anti-proliferative agents”. Further, the IC50 in the series with Saos-2 is 12.4 µM. Also, the IC50 with HT29 came out at 2.92 µM. The IC50 in the series with A549 was 7.56 µM.
The molecule `Cc1[nH]c(CN(C)C)c(C)c1-c1ccnc(Nc2ccc(F)cc2)n1` [Compound 54, [4-(5-Dimethylaminomethyl-2,4-dimethyl-1H-pyrrol-3-yl)-pyrimidin-2-yl]-(4-fluoro-phenyl)-amine] had a melting point of 88.4 to 91.6 °C. Besides, the IC50 on CDK2/cyclin E (setting [4]) is under 0.5 µM. For the same molecule, the “anti-proliferative activity” value in the series with human tumour cell lines is given as “particularly effective anti-proliferative agents”. In the series on Saos-2, the IC50 came out at 0.7 µM. In the series on HT29, the IC50 is 3.2 µM. Also, the IC50 with A549 was found to be 2.76 µM.
